Data from US6608174B1, “Radiolabeled vasoactive intestinal peptide analogs for diagnosis and radiotherapy” (Dabur Research Foundation, priority 2000, dated 2003).
Values belong to the molecule of their own block, whether it stands above or below them. Square brackets hold non-standard residues; d marks the D form. Ends that are not written are not given here. dPhe(4-Cl) = N[C@H](Cc1ccc(Cl)cc1)C(=O)O; Aib = CC(C)(N)C(=O)O

What was measured:
VIP receptors [1] = assay: Displacement assay using 125I labeled VIP on human tumor cell lines; assay type: binding; settings: for IC50: inhibition of 125I labeled VIP binding
Procedure: (§1) Peptides of the invention were assayed for biological activity in homogeneous competition binding assays using ^125I labeled VIP peptide (SEQ ID NO:1) and in heterogeneous displacement assays using either ^125I labeled VIP (10-28) fragment (Tyr-Thr-Arg-Leu-Arg-Lys-Gln-Met-Ala-Val-Lys-Lys-Tyr-Leu-Asn-Ser-Ile-Leu-Asn-NH2) (SEQ ID NO: 12) or ^125I labeled VIP (SEQ ID NO:1). The assays were performed on a variety of human tumor cell lines.
(§2) In the practice of these methods, the peptide was radioiodinated using the iodogen method. Briefly, 5 μg of the peptide in 10 μl of 50 mM PBS (pH 7.5), an appropriate amount of the radioisotope and 50 μg-100 μg iodogen were incubated at room temperature for 15-30 min with occasional mixing. Radioiodinated peptide was purified from unincorporated radioactive iodine by purification on a Sep Pak C18 cartridge, essentially following the same procedure as described for technetium labeling.
Displacement assays were performed at 4-8° C. Briefly, 50,000 cells were plated per well of a 24 well plate and allowed to adhere overnight. Before the assay, the cells were washed twice with ice cold Binding buffer (25 mM HEPES, 10 mM […] MgCl2 and 1% BSA in RPMI 1640 medium). The cells were incubated for 2-3hrs with an appropriate concentration (0.1-10 nM) of ^125I labeled VIP (SEQ ID NO:1) in the presence and absence of the cold ligand (SEQ ID NO: 2) (1 nM-10 μM). The non specific binding was ascertained using 10 μM of VIP. After incubation, the cells were washed thrice with the Binding buffer to remove the unbound peptide. The cells were lysed and counts were measured in a Gamma counter. From a comparison of the extent of binding in the presence or absence of the unlabeled peptide, a concentration was determined corresponding to inhibition of ^125I labeled VIP binding by 50%. Different tumor cell lines were assayed using the above described displacement assay: HT29 (human colorectal adenocarcinoma); PTC (human primary tumor cells adenocarcinoma); KB (human squamous cell carcinoma); 4451 (human squamous cell carcinoma); L132 (human lung carcinoma); A549 (human lung carcinoma); HBL100 (human breast carcinoma) and PA1 (human ovarian carcinoma). Cells were grown in RPMI 1640 supplemented with 10% fetal calf serum, glutamine and antibiotics using standard cell culture techniques (see Animal Cell Culture: A Practical Approach, Freshney, ed, IRL press: Oxford, UK, 1992).

VIP receptors [2] = assay: Displacement assay using 125I labeled VIP (10-28) fragment on human tumor cell lines; settings: inhibition of 125I labeled VIP (10-28) fragment binding
Procedure: as §1, §2
Displacement assays were performed at 4-8° C. Briefly, 50,000 cells were plated per well of a 24 well plate and allowed to adhere overnight. Before the assay, the cells were washed twice with ice cold Binding buffer (25 mM HEPES, 10 mM MgCl2 and 1% BSA in RPMI 1640 medium). The cells were incubated for 2-3hrs with an appropriate concentration (0.1-10 nM) of ^125I labeled VIP (10-28) fragment (SEQ ID NO:12) in the presence and absence of the cold ligand (SEQ ID NO: 2) (1 nM-10 μM). The non specific binding was ascertained using 10 μM of VIP. After incubation, the cells were washed thrice with the binding buffer to remove the unbound peptide. The cells were lysed and counts were measured in a Gamma counter. From a comparison of the extent of binding in the presence or absence of the unlabeled peptide, a concentration was determined corresponding to inhibition of ^125I labeled VIP (10-28) fragment binding by 50% (termed the IC50) (TABLE III).
The following tumor cell lines were assayed using the above described displacement assay: HT29 (human colorectal adenocarcinoma); PTC (human primary tumor cells adenocarcinoma); KB (human squamous cell carcinoma); 4451 (human squamous cell carcinoma); L132 (human lung carcinoma); A549 (human lung carcinoma); HBL100 (human breast carcinoma) and PA1 (human ovarian carcinoma).
Cells were grown in RPMI 1640 supplemented with 10% fetal calf serum, glutamine and antibiotics using standard cell culture techniques (see Animal Cell Culture: A Practical Approach, Freshney, ed, IRL press: Oxford, UK, 1992).

[3] = target: high affinity (nM range), low surface expression receptor on human tumor cells (VIP receptor) (human); assay: maximal binding, 125I-SEQ ID NO:2 on L132 cells
[4] = target: low affinity (µM range), high surface expression receptor on human tumor cells (VIP receptor) (human); assay: maximal binding, 125I-SEQ ID NO:2 on L132 cells
[5] = target: VIP receptors on human tumor cell lines (human); assay: displacement of 125I labeled VIP on PA1 cells
[6] = target: high affinity (nM range), low surface expression receptor on human tumor cells (VIP receptor) (human); assay: maximal binding, 125I-SEQ ID NO:2 on PA1 cells (printed PAI)
[7] = target: low affinity (µM range), high surface expression receptor on human tumor cells (VIP receptor) (human); assay: as above
[8] = target: VIP receptors on human tumor cell lines (human); assay: displacement of 125I labeled VIP (10-28) fragment on L132 cells
[9] = target: high affinity (nM range), low surface expression receptor on human tumor cells (VIP receptor) (human); assay: homologous radioligand competition, 125I-SEQ ID NO:2 on PA1 cells
[10] = target: low affinity (µM range), high surface expression receptor on human tumor cells (VIP receptor) (human); assay: as above
[11] = target: high affinity (nM range), low surface expression receptor on human tumor cells (VIP receptor) (human); assay: maximal binding, 125I-SEQ ID NO:2 on HBL 100 cells
[12] = target: low affinity (µM range), high surface expression receptor on human tumor cells (VIP receptor) (human); assay: maximal binding, 125I-SEQ ID NO:2 on HBL 100 cells
[13] = target: high affinity (nM range), low surface expression receptor on human tumor cells (VIP receptor) (human); assay: homologous radioligand competition, 125I-SEQ ID NO:2 on KB cells
[14] = target: low affinity (µM range), high surface expression receptor on human tumor cells (VIP receptor) (human); assay: as above

Molecule: His-Ser-Asp-Aib-Val-4-Cl-D-Phe-Thr-Asp-Asn-Tyr-Thr-Arg-Leu-Arg-Lys-Gln-Leu-Ala-Val-Lys-Lys-Tyr-Leu-Asn-Ser-Ile-Leu-Asn-NH2 (HSD[Aib]V[dPhe(4-Cl)]TDNYTRLRKQLAVKKYLNSILN-NH2; N-terminus assumed; SMILES CC[C@H](C)[C@H](NC(=O)[C@H](CO)NC(=O)[C@H](CC(N)=O)NC(=O)[C@H](CC(C)C)NC(=O)[C@H](Cc1ccc(O)cc1)NC(=O)[C@H](CCCCN)NC(=O)[C@H](CCCCN)NC(=O)[C@@H](NC(=O)[C@H](C)NC(=O)[C@H](CC(C)C)NC(=O)[C@H](CCC(N)=O)NC(=O)[C@H](CCCCN)NC(=O)[C@H](CCCNC(=N)N)NC(=O)[C@H](CC(C)C)NC(=O)[C@H](CCCNC(=N)N)NC(=O)[C@@H](NC(=O)[C@H](Cc1ccc(O)cc1)NC(=O)[C@H](CC(N)=O)NC(=O)[C@H](CC(=O)O)NC(=O)[C@@H](NC(=O)[C@@H](Cc1ccc(Cl)cc1)NC(=O)[C@@H](NC(=O)C(C)(C)NC(=O)[C@H](CC(=O)O)NC(=O)[C@H](CO)NC(=O)[C@@H](N)Cc1c[nH]cn1)C(C)C)[C@@H](C)O)[C@@H](C)O)C(C)C)C(=O)N[C@@H](CC(C)C)C(=O)N[C@@H](CC(N)=O)C(N)=O) [SEQ ID NO:2, VIP receptor antagonist, preferred peptide (Xxx = Aib)]
- IC50 (VIP receptors [1]; 4451 cells): 7.1 nM
- IC50 (VIP receptors [1]; A549 cells): 4.3 nM
- IC50 (VIP receptors [1]; HBL 100 cells): 5.41 nM
- IC50 (VIP receptors [1]; HT29 cells): 2.78 nM
- IC50 (VIP receptors [1]; KB cells): 6.2 nM
- IC50 (VIP receptors [1]; L132 cells): 6.8 nM
- IC50 (VIP receptors [1]; PA1 cells): 7.6 nM
- IC50 (VIP receptors [1]; PTC cells): 2.53 nM
- displacement of binding of radiolabelled VIP to the cell lines (VIP receptors [1]; all cell lines of Table IV): significantly displace
- IC50 (VIP receptors [2]; 4451 cells): 0.383 nM
- IC50 (VIP receptors [2]; A549 cells): 0.275 nM
- IC50 (VIP receptors [2]; HBL 100 cells): 0.236 nM
- IC50 (VIP receptors [2]; HT29 cells): 0.22 nM
- IC50 (VIP receptors [2]; KB cells): 0.35 nM
- IC50 (VIP receptors [2]; L132 cells): 0.228 nM
- IC50 (VIP receptors [2]; PA1 cells): 0.31 nM
- IC50 (VIP receptors [2]; PTC cells): 0.132 nM

- Bmax1 [3]: 306 pM
- Bmax2 [4]: 45.8 nM
- IC50 [5]: 7.6 nM
- Bmax1 [6]: 529 pM
- Bmax2 [7]: 47.7 nM
- IC50 [8]: 0.228 nM
- Kd [9]: 5.6 nM
- Kd [10]: 1890 nM
- Bmax1 [11]: 697 pM
- Bmax2 [12]: 69.1 nM
- Kd [13]: 4.2 nM
- Kd [14]: 1840 nM
Molecule: HSD[Aib]V[dPhe(4-Cl)]TDNYTRLRKQLAVKKYLNSILN-NH2 (also: 125I-labelled form (iodogen) used as tracer)
